Measurements: patent US20080234336A1, “Synergistic Imazalil Combinations” (priority 2005, published 2008)

Tests used:
Format in all cases: cell-based
[1] = system: Gloeosporium album; assay: Poison plate assay (Experiment 1), MIC and Synergy Index; conditions: PDA, 27° C., evaluation after two days, ppm total active ingredient; for MIC: Phlyctema vagabunda, 48 h, read-out: MIC-values (minimum inhibitory concentration) in ppm
From the text: (§1) Name of the primary compound: • imazalil (I) Name of the combination partners: • boscalid (II-a) • cyproconazole (II-b) • pyraclostrobin (II-c) • triflumizole (II-d) Stock solution: 1000 ppm in DMSO
(§2) • Concentrations of total active ingredient in the combinations: a series of concentrations increasing with steps of 1/3: 0.21-0.28-0.38-0.50-0.67-0.89-1.19-1.58-2.11-2.81-3.75-5.00-6.67-8.90-11.87-15.82-21.09-28.13-37.50-50.00 ppm • Culture medium: Potato Dextrose Agiar (PDA): 4 g potato infusion, 20 g bacto dextrose and 15 g bacto agar in 1 liter deionised water • Experimental set up: 24-well plates
(§3) • Inoculum: a spore/mycelium suspension (2 μl) or a piece of agar from the margin of an actively growing colony • Culture conditions: 27° C., 70% relative humidity, dark. • Evaluation: Evaluation after two days. Synergism between component (I) and one of the components (II) was determined by a commonly used and accepted method described by Kull F. C. et al. in Applied Microbiology, 9, 538-541 (1961) using the Synergy Index, which is calculated as follows for two compounds A and B: […]
(§4) wherein: • QA is the concentration of compound A in ppm, acting alone, which produced an end point (e.g. MIC), • Qa is the concentration of compound A in ppm, in the mixture, which produced an end point (e.g. MIC), • QB is the concentration of compound B in ppm, acting alone, which produced an end point (e.g. MIC), • Qb is the concentration of compound B in ppm, in the mixture, which produced an end point (e.g. MIC). When the Synergy Index is greater than 1.0, antagonism is indicated.

[2] = system: Colletotrichum musae; assay: as above; conditions: PDA, 27° C., evaluation after two days, ppm total active ingredient; for MIC: 48 h, read-out: MIC-values (minimum inhibitory concentration) in ppm
From the text: as §1, §2, §3, §4

[3] = system: Rhizoctonia solani; assay: as above; conditions: PDA, 27° C., evaluation after two days, ppm total active ingredient; for MIC: 48 h, read-out: MIC-values (minimum inhibitory concentration) in ppm
From the text: as §1, §2, §3, §4

[4] = system: Geotrichum candidum (Gca); assay: Poison plate assay (Experiment 2), fungal growth and Limpel synergy
Method: (§5) Name of the primary compound: imazalil (I) Formulations: (% is in w/v)
• Stock solution: 2000 ppm (w/w) • Solvent for dilutions: demineralised water • Fungal species: post harvest and seed pathogens: Geotrichum candidum (Gca) and Penicillium digitatum (Pdi) Calculated amounts of dilutions were poured into multi-well plates. Culture medium was added aseptically and uniform distribution was obtained by shaking. […] The expected activity E of a combination of active ingredients was calculated by using Limpel's formula (Richter, D. L; Pesticide Science 1987, 19: 309-315): • E=A+B−(A*B)/100 wherein A and B express the activities obtained for each of the active ingredients when applied alone. A synergistic effect is acknowledged if the measured activity M exceeds the calculated (expected) activity E (synergy indicated by figures in bold).

[5] = system: Geotrichum candidum; assay: Poison plate assay (Experiment 1), MIC and Synergy Index; conditions: 48 h, PDA, 27° C., evaluation after two days, ppm total active ingredient, read-out: MIC-values (minimum inhibitory concentration) in ppm
From the text: as §1, §2, §3, §4

[6] = system: Penicillium digitatum (Pdi); assay: Poison plate assay (Experiment 2), fungal growth and Limpel synergy; conditions: Table 6, Pdi; imazalil 0.02 ppm, combinations 0.02 + 0.02 ppm; conc 0 for carpropamid and fosetyl-Al alone
Method: as §5
• Stock solution: 2000 ppm (w/w) • Solvent for dilutions: demineralised water • Fungal species: post harvest and seed pathogens: Geotrichum candidum (Gca) and Penicillium digitatum (Pdi) Calculated amounts of dilutions were poured into multi-well plates. Culture medium was added aseptically and uniform distribution was obtained by shaking. The plates were inoculated with the test fungi and incubated during a period long enough to allow complete outgrowth of controls. • Test concentrations: noted in ppm versus growth medium (w/v): see tables • Replicates: 4 • Culture medium: PDA (Potato Dextrose Agar) • Culture conditions: 22° C. and 60% relative humidity • Inoculation: with a small piece of agar from the margin of an actively growing culture or a suspension of spores, mycelium or culture • Evaluation date: at complete outgrowth of control • Synergy calculation: Diameter of fungal growth (in mm) was measured, mean radial growth (X) and measured activity (M) were calculated. The expected activity E of a combination of active ingredients was calculated by using Limpel's formula (Richter, D. L; Pesticide Science 1987, 19: 309-315): • E=A+B−(A*B)/100 wherein A and B express the activities obtained for each of the active ingredients when applied alone. A synergistic effect is acknowledged if the measured activity M exceeds the calculated (expected) activity E (synergy indicated by figures in bold).

[7] = Table 7, Gca, conc 60 μM (tetraconazole 6 μM), combinations 60 + 60, (I) + (II-i) 60 + 6
[8] = Table 7, Gca, conc 70 μM (tetraconazole 7 μM), combinations 70 + 70, (I) + (II-i) 70 + 7
[9] = Table 5, Gca, conc 20 ppm each (combinations 20 + 20)
[10] = Table 5, Gca, conc 25 ppm each (combinations 25/25)

| Compound | MIC [1] | MIC [2] | MIC [3] | M = measured activity [4, 7] | X = mean fungal growth [4, 7] | M = measured activity [4, 8] | X = mean fungal growth [4, 8] | other results |
| --- | --- | --- | --- | --- | --- | --- | --- | --- |
| COC(=O)N(OC)c1ccccc1COc1ccn(-c2ccc(Cl)cc2)n1 [pyraclostrobin, methyl N-(2-[1-(4-chlorophenyl)-1H-pyrazol-3-yloxymethyl]phenyl](N-methoxy)carbamate] | 66.7 µg/mL | 66.7 µg/mL | 66.7 µg/mL |  |  |  |  |  |
| CSC(=O)c1cccc2nnsc12 [acibenzolar-S-me (II-e), benzo[1,2,3]-thiadiazole-7-carbothioic acid S-methyl ester] |  |  |  | 7 | 14 mm | 3 | 15 mm |  |
| FC(F)C(F)(F)OCC(Cn1cncn1)c1ccc(Cl)cc1Cl (stereo not drawn) [tetraconazole (II-i), 1-[2-(2,4-dichloro-phenyl)-3-(1,1,2,2-tetrafluoroethoxy)propyl]-1H-1,2,4-triazole] |  |  |  | 15 | 13 mm | 3 | 15 mm | M = measured activity [4, 9]: 36; X = mean fungal growth [4, 9]: 9 mm; M = measured activity [4, 10]: 45; X = mean fungal growth [4, 10]: 8 mm |
| CC(C1CC1)C(O)(Cn1cncn1)c1ccc(Cl)cc1 (stereo not drawn) [cyproconazole, α-(4-chloro-phenyl)-α-(1-cyclopropyl-ethyl)-1H-1,2,4-triazole-1-ethanol] | 2.81 µg/mL | 66.7 µg/mL | 11.9 µg/mL |  |  |  |  | MIC [5]: 6.67 µg/mL |
| CCC(C)(NC(=O)c1cc(Cl)c(C)c(Cl)c1)C(=O)CCl (stereo not drawn) [zoxamide (II-j), 3,5-dichloro-N-(3-chloro-1-ethyl-1-methyl-2-oxopropyl)-4-methyl-benzamide] |  |  |  | 0 | 15 mm | 2 | 15 mm |  |
| (E)-4-chloro-ααα-trifluoro-N-(1-imidazol-1-yl-2-propoxyethylidene)-o-toluidine [triflumizole] |  |  |  |  |  |  |  | MIC-values (minimum inhibitory concentration) in ppm [1]: 6.67 ppm; MIC-values (minimum inhibitory concentration) in ppm [2]: 28.13 ppm; MIC-values (minimum inhibitory concentration) in ppm [3]: 37.50 ppm |
| CCC1(C(=O)NC(C)c2ccc(Cl)cc2)C(C)C1(Cl)Cl (stereo not drawn) [carpropamid (II-f), 2,2-dichloro-N-[1-(4-chlorophenyl)ethyl]-1-ethyl-3-methyl-cyclopropanecarboxamide] |  |  |  |  |  |  |  | M = measured activity [6]: 0; X = mean fungal growth [6]: 15 mm |
| C=CCOC(Cn1ccnc1)c1ccc(Cl)cc1Cl (stereo not drawn) [imazalil] | 1.58 µg/mL | 8.9 µg/mL | 50 µg/mL | 7 | 14 mm | 68 | 5 mm | MIC [5]: 66.7 µg/mL; M = measured activity [4, 9]: 38; X = mean fungal growth [4, 9]: 9 mm; M = measured activity [4, 10]: 50; X = mean fungal growth [4, 10]: 7 mm; M = measured activity [6]: 88; X = mean fungal growth [6]: 2 mm |
